According to publication PMC8634879, “Design, Synthesis, and Biological Evaluation of Pyrano[2,3-c]-pyrazole–Based RalA Inhibitors Against Hepatocellular Carcinoma” (Frontiers in Chemistry, 2021):

Experiments:
RalB [1] = target: T1, RalB (Homo sapiens, UniProt P11234); test: ELISA-based RalB activity assay (RalBP1-coated plates, lysates of compound-treated cells); type: biochemical
T1 construct: expressed in transfected cells; host or cells: HepG2 (from b6; the methods paragraph names no cell line)
T1 sequence (P11234 1-203 limits assumed): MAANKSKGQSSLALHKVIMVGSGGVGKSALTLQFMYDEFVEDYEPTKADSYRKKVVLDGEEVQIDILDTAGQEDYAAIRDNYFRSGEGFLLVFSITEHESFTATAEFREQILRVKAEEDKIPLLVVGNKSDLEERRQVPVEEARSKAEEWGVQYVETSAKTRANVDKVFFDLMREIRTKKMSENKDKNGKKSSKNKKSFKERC
Procedure, shortened: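 Lysates of compound- or vehicle-treated cells, cleared by cold centrifugation, incubated overnight at 4°C on RalBP1-coated plates. Bound Ral detected with mouse anti-FLAG then HRP anti-mouse antibody; reaction stopped with 2 mol/L sulfuric acid and read at OD450.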

SMMC-7721 cells = test: Cell proliferation assay (MTT), SMMC-7721; type: cell-based; conditions: Homo sapiens, average of at least three independent replicates ± SD, read-out: Anti-proliferative activities (IC50, μM) SMMC-7721
Protocol: The antibodies recognizing LC3, p62/SQSTM1, RalA, RalB, and GAPDH were purchased from Proteintech (Wuhan, China). HCC cell lines, including HepG2, Hep3B, Huh-7, and SMMC-7721, were obtained from the Chinese Center for Type Culture Collection (Wuhan, China) and cultured in DMEM (Dulbecco’s modified Eagle’s medium) with 10% FBS (fetal bovine serum) and streptomycin. Cytotoxicity assays were performed by using the MTT method as previously described.
(§1) The in vitro RalA/B bioactivity assays were performed following methods outlined in previous reports. ([Yan et al., 2016]; [Zhang et al., 2018]; [Walsh et al., 2019]; [Bum-Erdene et al., 2020]). In brief, the lysates of the test compound or vehicle-treated cells were cleared using cold centrifugation, and supernatants were collected. An RalBP1 solution was added to 96-well plates and incubated for 1–2 h, and then the plates were washed thrice using ELISA buffer. Next, cellular lysates were added, and samples were incubated overnight at 4°C. Then, ice-cold mouse anti-FLAG antibody was added, and samples were incubated for one more hour. After subsequent washing with ELISA buffer thrice, the HRP-conjugated anti-mouse antibody was added, and samples were incubated for another hour. Then, the HRP substrate was added. Antigen–antibody reactions were quenched by the addition of sulfuric acid (2 mol/L). Remaining RalA/B was detected by the OD450 values which were collected by using a plate reader. Cell proliferation assays, colony formation assays, apoptosis assays, GST pulldown, and Western blotting were used following methods outlined in our previous reports. ([Zhou et al., 2015]; [Zhang et al., 2016]; [Yang et al., 2017]; [He et al., 2019]). Autophagy levels and protein immunoblotting were used following the methods mentioned in our previous reports ([Pan et al., 2018]; [Wang et al., 2018]; [Hao et al., 2019]; [Wang et al., 2019]; [Peng et al., 2020]). Detailed experimental procedures are described in supporting materials.

RalB [2] = target: T1, RalB; test: GST pulldown of activated RalB; type: cell-based; conditions: 2.0 μM
Protocol: GST pulldown assays were performed to assess 4p RalA/B inhibitory capacities. […] Only activated RalA was suppressed after incubation with 0.5 μM of compound 4p (Figure 5A).
as §1, with “([Zhou et al., 2015]; [Zhang et al., 2016]; [Yang et al., 2017]; [He et al., 2019]). Autophagy levels and protein immunoblotting were used following the methods mentioned in our previous reports ([Pan et al., 2018]; [Wang et al., 2018]; [Hao et al., 2019]; [Wang et al., 2019]; [Peng et al., 2020]). Detailed experimental procedures are described in supporting materials.” left out

HepG2 xenograft = test: HepG2 subcutaneous xenograft model; type: in vivo
Protocol: Several reports have characterized RalA/B potential regulatory roles in autophagy ([Zhang et al., 2019]; [Pang et al., 2020]; [Zhang et al., 2020]). Considering the dual effect of HCC autophagy, we assessed changes in HepG2 cell autophagy levels after the addition of 0.5 or 2.0 μM of 4p, before incubation. Based on HepG2 cells’ TEM images with or without 4p (Figure 5B), autophagy vacuoles per cell decreased in the 4p-treated group (p < 0.01). After 4p treatments, LC3-II and ATG5 protein levels declined and SQSTM1 increased. […] In GFP-LC3–transfected HepG2 cells, cytoplasm LC3 fluorescent puncta numbers also declined after 4p treatments. […] The in vivo antitumor capacities of 4p were determined on a HepG2 subcutaneous xenograft model. The 4p intraperitoneal injections were set to 15 mg/kg and 60 mg/kg, according to in vitro results. […] The potential 4p molecular mechanisms were further validated using immunofluorescence and IHC analyses of tissue sections stained by antibodies against TUNEL, Ki-67, RalA, LC3-II, and SQSTM1. […] Therefore, the in vivo results were consistent with in vitro experiments.
Female Balb/c nude mice aged 6–8 weeks were purchased from Beijing Huafukang Co. Ltd. (Beijing, China). Animal-based experiments complied with the guidelines of the Animal Ethics Committee (Sichuan University), and all aspects were approved by the Animal Ethics Committee of West China Hospital of Sichuan University (China). In brief, HepG2 cells were injected subcutaneously in the dorsal flank of Balb/c nude mice (5*10^5 cells per mice). Tumor volumes were recorded every 2 days post cancer cell injection. After the therapeutic endpoint, all mice were euthanized, and tumor tissues were stripped, fixed in formalin, embedded in paraffin, and sectioned. The IHC and immunofluorescent staining methods were performed following methods as per our previous research, ([Zhang et al., 2019]; [Pan et al., 2020]; [Pang et al., 2020]; [Zhang et al., 2020]), and detailed experimental procedures are also described in supporting materials. […]
2. Western blotting analysis
For western blotting, the extracts of total protein from each sample were treated in accordance with the method we described previously. In short, the total proteins were loaded into the SDS-PAGE gel and separated through the different of their molecular weight in electrophoresis, after that the separated proteins were shifted into a PVDF membrane (Millipore, Burlington, MA, USA) and incubated through corresponding membrane react pathways. The resulted membranes reacted with major antibodies and HRP (horseradish peroxidase)-conjugated secondary antibodies. The expression profiles of target proteins can be identified through an enhanced chemiluminescence (ECL) substrate.
3. Immunohistochemistry and immunofluorescent assays
The histological sections of tumor tissue were immersed into EDTA antigen recovery buffer (pH 8.0) or citrate buffer (pH 6.0), and then microwave was used to recover antigen. Then the slide was incubated with the corresponding primary antibody at 37 ℃ for 30-40 min. Normal anti-rabbit or anti-mouse IgG was used as a negative control group. Immunohistochemical analysis was performed with diaminobenzidine solution after the sections was treated with HRP polymer as well as the second antibody for 30 min. Immunofluorescence (IF) test was carried out by treating slides with fluorescein combined with secondary antibody and detecting under fluorescence microscope. The IHC staining method is to use the corresponding primary antibody, as we reported in previous

## COc1ccc(S(=O)(=O)NC2=C(C#N)C(c3ccc(C(F)(F)F)cc3)c3c(C)nn(-c4ccccc4)c3O2)cc1 (centres unmarked) [4p, N-(5-cyano-3-methyl-1-phenyl-4-(4-(trifluoromethyl)phenyl)-1,4-dihydropyrano[2,3-c]-pyrazol-6-yl)-4-methoxybenzenesulfonamide]
RalB [1]; 1 μM compound, % control = active (RalBP1-bound) RalB remaining
  remaining activity at 1 µM: 22%
RalB [1]; enzymatic inhibition, average of at least three independent replicates ± SD, read-out: Kinase activities (IC50, μM) RalB
  IC50: 0.41 ± 0.07 µM
SMMC-7721 cells
  IC50: 5.38 ± 0.37 µM
RalB [2]
  activated RalB protein expression level: significantly suppressed
HepG2 xenograft; 15 and 60 mg/kg i.p.
  body weights: without significant changes
HepG2 xenograft; IHC
  total RalA levels in tumor sections: No clear changes
HepG2 xenograft; both high- and low-dosage groups (60 and 15 mg/kg i.p.), p < 0.01
  mean tumor weights compared to the control: notably declined
HepG2 xenograft; high dosage group, immunofluorescence/IHC
  TUNEL and SQSTM1 levels in tumor sections: increased
HepG2 xenograft; high dosage group, p < 0.01
  LC3-II expression in tumor sections: decreased
HepG2 xenograft; high dosage, 60 mg/kg intraperitoneal injection
  tumor growth inhibition (TGI): 63%
HepG2 xenograft; low dosage, 15 mg/kg intraperitoneal injection
  tumor growth inhibition (TGI): 39%
